Measurements reported in article PMC9822021, “Biological Activity of Amidino-Substituted Imidazo [4,5-b]pyridines” (Molecules, 2022).
≈ marks a conversion by molar mass, not a printed value.

Columns and labels:
E. coli ATCC 25922 = assay: Antibacterial activity in vitro, broth microdilution; assay type: cell-based; conditions: Escherichia coli, ATCC25922; broth microdilution (CLSI), 16–24 h at 37 °C
Protocol: (§1) Synthesized compounds were prepared as 10 mM DMSO solutions and tested in a final concentration range of 100–0.2 µM [34].
(§2) Broth microdilution testing was performed according to CLSI (Clinical Laboratory Standards Institute) guidelines. MIC (minimal inhibitory concentration) values were defined as the last tested concentration of the compound at which there was no visible growth of bacteria. Inoculums for each microorganism were prepared using the direct colony suspension method, where broth solutions that achieved turbidity equivalent to 0.5 McFarland standard were additionally diluted 100× with Ca-adjusted MH media (Becton Dickinson).

S. aureus ATCC 29213 = assay: as above; assay type: cell-based; conditions: Staphylococcus aureus, ATCC29213; broth microdilution (CLSI), 16–24 h at 37 °C
Protocol: as §1, §2

S. Pneumoniae ATCC 49619 = assay: as above; assay type: cell-based; conditions: Streptococcus pneumoniae, ATCC49619; broth microdilution (CLSI), 16–24 h at 37 °C
Protocol: as §1, §2

E. coli Efflux Del = assay: microbe, parasite or virus in culture; assay type: cell-based; conditions: Escherichia coli, read-out: MIC E. coli Efflux Del
Protocol: as §1, §2

[1] = test system: HL-60 acute myeloid leukemia cells; assay: In vitro antiproliferative activity, MTS proliferation assay; assay type: cell-based; conditions: Homo sapiens, 72 h
Protocol: (§3) Culture media were purchased from Gibco Life Technologies, USA, and supplemented with 10% fetal bovine serum (HyClone, GE Healthcare Life Sciences, Chicago, IL, USA), except for the media for SW620, PC3 and HeLa cells, which were purchased from Sigma.
(§4) Cells were incubated for 72 h with compounds and were then analyzed using the CellTiter 96® AQueous One Solution Cell Proliferation Assay (MTS) reagent (Promega) according to the manufacturer’s instructions. […] Compounds were tested in two independent experiments. SW620, PC3 and HeLa cells were seeded in 96-well microtiter plates at 1 × 10^4 to 3 × 10^4 cells/mL, depending on the doubling times of the specific cell line. Test agents were then added in five 10-fold dilutions (10^−8 to 10^−4 M). Working dilutions were freshly prepared on the day of testing. After 72 h of incubation, the cell growth rate was evaluated using the MTT assay as described previously. […] Each test was performed in quadruplicate in at least two individual experiments.

[2] = test system: Capan-1 pancreatic adenocarcinoma cells; assay: as above; assay type: cell-based; conditions: Homo sapiens, 72 h
Protocol: as §3, §4

[3] = test system: DND-41 acute lymphoblastic leukemia cells; assay: as above; assay type: cell-based; conditions: Homo sapiens, DND41, 72 h
Protocol: as §3, §4

in vitro [4] = conditions: human
[5] = test system: Z-138 non-Hodgkin lymphoma cells; assay: In vitro antiproliferative activity, MTS proliferation assay; assay type: cell-based, human; conditions: Homo sapiens, Z-138, 72 h
Excerpt: (§5) Human cancer cell lines used in this manuscript, namely Capan-1, HCT-116, NCI-H460, LN-229, HL-60, K-562, Z-138, SW620, PC3 and HeLa, were acquired from the American Type Culture Collection (ATCC, Manassas, VA, USA), while the DND-41 cell line was purchased from the Deutsche Sammlung von Mikroorganismen und Zellkulturen (DSMZ Leibniz-Institut, Germany). Culture media were purchased from Gibco Life Technologies, USA, and supplemented with 10% fetal bovine serum (HyClone, GE Healthcare Life Sciences, Chicago, IL, USA), except for the media for SW620, PC3 and HeLa cells, which were purchased from Sigma.
(§6) Adherent cell lines LN-229, HCT-116, NCI-H460 and Capan-1 cells were seeded at a density between 500 and 1500 cells per well in 384-well tissue culture plates (Greiner). […]. Cells were incubated for 72 h with compounds and were then analyzed using the CellTiter 96® AQueous One Solution Cell Proliferation Assay (MTS) reagent (Promega) according to the manufacturer’s instructions. Absorbance of the samples was measured at 490 nm using a SpectraMax Plus 384 (Molecular Devices), and OD values were used to calculate the 50% inhibitory concentration (IC50). Compounds were tested in two independent experiments. SW620, PC3 and HeLa cells were seeded in 96-well microtiter plates at 1 × 10^4 to 3 × 10^4 cells/mL, depending on the doubling times of the specific cell line. Test agents were then added in five 10-fold dilutions (10^−8 to 10^−4 M). Working dilutions were freshly prepared on the day of testing. After 72 h of incubation, the cell growth rate was evaluated using the MTT assay as described previously. Absorbance of the samples was measured at 570 nm, and OD values were used to calculate the 50% inhibitory concentration (IC50). Each test was performed in quadruplicate in at least two individual experiments.

in vitro [6] = conditions: human; remark: listed apart in the source
[7] = test system: LN-229 glioblastoma cells; assay: In vitro antiproliferative activity, MTS proliferation assay; assay type: cell-based; conditions: Homo sapiens, 72 h
Excerpt: as §5, §6

[8] = test system: NCI-H460 lung carcinoma cells; assay: as above; assay type: cell-based; conditions: Homo sapiens, 72 h
Excerpt: as §5, §6

[9] = test system: K-562 chronic myeloid leukemia cells; assay: as above; assay type: cell-based; conditions: Homo sapiens, K562, 72 h
Excerpt: as §5, §6

[10] = test system: HCT-116 colorectal carcinoma cells; assay: as above; assay type: cell-based; conditions: Homo sapiens, 72 h
Excerpt: as §5, §6

in vitro [11] = conditions: dog
[12] = test system: PC3 prostate carcinoma cells; assay: In vitro antiproliferative activity, MTT assay; assay type: cell-based; conditions: Homo sapiens, 72 h
Excerpt: as §5, §6

[13] = test system: HeLa cervical carcinoma cells; assay: In vitro antiproliferative activity, MTT assay; assay type: cell-based; conditions: Homo sapiens, 72 h
Excerpt: as §5, §6

[14] = test system: SW620 colon carcinoma cells; assay: In vitro antiproliferative activity, MTT assay; assay type: cell-based; conditions: Homo sapiens, SW-620, 72 h
Excerpt: as §5, §6

Row | Structure (SMILES) | MIC (E. coli ATCC 25922) | MIC (S. aureus ATCC 29213) | MIC (S. Pneumoniae ATCC 49619) | MIC (E. coli Efflux Del) | IC50 [1] | IC50 [2] | IC50 [3] | CC50 (in vitro [4]) | IC50 [5] | CC50 (in vitro [6]) | IC50 [7] | IC50 [8] | IC50 [9] | IC50 [10] | CC50 (in vitro [11]) | IC50 [12] | IC50 [13] | IC50 [14] | melting point
1 | CC1(C)S[C@@H]2[C@H](NC(=O)[C@H](N)c3ccccc3)C(=O)N2[C@H]1C(=O)O [Ampicillin, ampicillin, reference compound] | 1 µM (≈ 0.349 µg/mL) | 1 µM (≈ 0.349 µg/mL) | < 0.125 µM |  |  |  |  |  |  |  |  |  |  |  |  |  |  |  | 
2 | CC(C)(O/N=C(\C(=O)N[C@@H]1C(=O)N2C(C(=O)[O-])=C(C[n+]3ccccc3)CS[C@H]12)c1csc(N)n1)C(=O)O [Ceftazidime, ceftazidime, reference compound] | 0.25 µM (≈ 0.137 µg/mL) | 16 µM (≈ 8.75 µg/mL) | 0.25 µM (≈ 0.137 µg/mL) | 0.25 µM (≈ 0.137 µg/mL) |  |  |  |  |  |  |  |  |  |  |  |  |  |  | 
3 | N#Cc1ccc(-c2nc3ncccc3[nH]2)cc1 [Compound 6, 4-(1H-Imidazo[4,5-b]pyridin-2-yl)benzonitrile] | > 64 µM | > 64 µM | > 64 µM | > 64 µM | > 100 µM | > 100 µM | > 100 µM | > 100 µM | > 100 µM | > 100 µM | > 100 µM | > 100 µM | > 100 µM | > 100 µM | > 100 µM | > 100 µM | 28.9 ± 7.2 µM | > 100 µM | 
4 | Cl.N=C(N)c1ccc(-c2nc3ncccc3[nH]2)cc1 [Compound 9, 4-(1H-Imidazo[4,5-b]pyridin-2-yl)benzimidamide Hydrochloride] | > 64 µM | > 64 µM | > 64 µM | > 64 µM | > 100 µM | > 100 µM | > 100 µM | > 100 µM | > 100 µM | > 100 µM | > 100 µM | > 100 µM | > 100 µM | > 100 µM | > 100 µM | > 100 µM | > 100 µM | > 100 µM | > 300 °C
5 | CC(C)NC(=N)c1ccc(-c2nc3ncc(Br)cc3[nH]2)cc1.Cl [Compound 16, 4-(6-Bromo-1H-imidazo[4,5-b]pyridin-2-yl)-N-isopropylbenzimidamide Hydrochloride] | > 64 µM | > 64 µM | > 64 µM | > 64 µM | 91.4 ± 5.1 µM | 52.7 ± 2.9 µM | 11.9 ± 0.1 µM |  | 12.1 ± 0.8 µM |  | 52.4 ± 8.1 µM | > 100 µM | 53.6 ± 2.8 µM | 77.2 ± 19.1 µM | 71.2 ± 40.8 µM | 13.3 ± 2.6 µM | 13.3 ± 4.3 µM | 7.4 ± 1.1 µM | > 300 °C
6 | CC(=O)O[C@@]12CO[C@@H]1C[C@H](O)[C@@]1(C)C(=O)[C@H](O)C3=C(C)[C@@H](OC(=O)[C@H](O)[C@@H](NC(=O)OC(C)(C)C)c4ccccc4)C[C@@](O)([C@@H](OC(=O)c4ccccc4)[C@H]21)C3(C)C [DTX, docetaxel, reference compound] |  |  |  |  | 0.0022 µM | 0.0038 ± 0.003 µM | 0.0025 µM |  | 0.0023 µM |  | 0.0041 ± 0.003 µM | 0.0034 µM | 0.0085 ± 0.001 µM | 0.0025 µM |  |  |  |  | 
7 | C[C@@H](O)[C@H]1C(=O)N2C(C(=O)O)=C(S[C@@H]3CN[C@H](C(=O)N(C)C)C3)[C@H](C)[C@H]12 [Meropenem, meropenem, reference compound] | < 0.125 µM | < 0.125 µM | < 0.125 µM | < 0.125 µM |  |  |  |  |  |  |  |  |  |  |  |  |  |  | 
8 | CN[C@@H]1C[C@H]2O[C@@](C)([C@@H]1OC)n1c3ccccc3c3c4c(c5c6ccccc6n2c5c31)C(=O)NC4 [STS, staurosporine, reference compound] |  |  |  |  |  |  |  |  | 0.0484 ± 0.007 µM |  | 0.0668 ± 0.016 µM | 0.0448 ± 0.004 µM | 0.0374 ± 0.006 µM | 0.0701 ± 0.006 µM |  |  |  |  | 
9 | COc1cccc2c1C(=O)c1c(O)c3c(c(O)c1C2=O)C[C@@](O)(C(=O)CO)C[C@@H]3O[C@H]1C[C@H](N)[C@H](O)[C@H](C)O1 [doxorubicine, reference compound] |  |  |  |  |  |  |  |  |  |  |  |  |  |  |  | 0.13 ± 0.02 µM | 0.16 ± 0.05 µM | 0.02 µM | 
10 | COc1cc([C@@H]2c3cc4c(cc3[C@@H](O[C@@H]3O[C@@H]5CO[C@@H](C)O[C@H]5[C@H](O)[C@H]3O)[C@H]3COC(=O)[C@H]23)OCO4)cc(OC)c1O [etoposide, reference compound] |  |  |  |  |  |  |  |  |  |  |  |  |  |  |  | 11.6 ± 1.9 µM | 0.004 ± 0.001 µM | 0.63 ± 0.1 µM | 
